Assay results published in publication PMC13278354, “The competitive interplay of 12‐oxophytodienoic acid (OPDA), protein thiols, and glutathione” (The Febs Journal, 2026).

Tests used:
TRX-m4 [1] = biological target: T1, TRX-m4 (Arabidopsis thaliana, UniProt Q9SEU6); experiment: insulin reduction assay (turbidity, A650); type: biochemical; conditions: covalent; 20 uM TRX pre-incubated with 80 uM OPDA, RT; assay pH 7.2, 1 mM DTT
T1 construct: gene At3g15360; recombinant His-tagged, without transit peptide, E. coli NiCo21(DE3)
T1 sequence (Q9SEU6 83-193): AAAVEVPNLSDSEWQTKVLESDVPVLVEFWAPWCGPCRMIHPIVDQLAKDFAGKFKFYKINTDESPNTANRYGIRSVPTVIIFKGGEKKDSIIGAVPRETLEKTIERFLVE

TRX-m4 [2] = biological target: T1, TRX-m4; experiment: intrinsic tryptophan fluorescence quenching; type: binding; conditions: covalent; 15 uM reduced protein, 150 uM OPDA, 3 h, RT, 50 mM KPi pH 7.2
TRX-f1 [3] = biological target: T2, TRX-f1 (Arabidopsis thaliana, UniProt Q9XFH8); experiment: insulin reduction assay (turbidity, A650); type: biochemical; conditions: covalent; 20 uM TRX pre-incubated with 80 uM OPDA, RT; assay pH 7.2, 1 mM DTT
T2 construct: gene At3g02730; recombinant His-tagged, without transit peptide, E. coli NiCo21(DE3)
T2 sequence (Q9XFH8 58-178): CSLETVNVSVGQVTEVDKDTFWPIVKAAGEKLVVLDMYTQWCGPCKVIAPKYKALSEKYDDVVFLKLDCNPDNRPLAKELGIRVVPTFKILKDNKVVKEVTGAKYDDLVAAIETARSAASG

TRX-h3 = biological target: T3, TRX-h3 (Arabidopsis thaliana, UniProt Q42403); experiment: insulin reduction assay (turbidity, A650); type: biochemical; conditions: covalent; 20 uM TRX pre-incubated with 80 uM OPDA, RT; assay pH 7.2, 1 mM DTT
T3 construct: gene TRX3; recombinant His-tagged, E. coli NiCo21(DE3); cytosolic, no transit peptide
T3 sequence (Q42403 1-118): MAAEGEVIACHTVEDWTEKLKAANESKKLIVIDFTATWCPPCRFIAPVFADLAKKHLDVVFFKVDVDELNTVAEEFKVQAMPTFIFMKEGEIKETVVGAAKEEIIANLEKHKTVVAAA

TRX-f1 [4] = biological target: T2, TRX-f1; experiment: intrinsic tryptophan fluorescence quenching; type: binding; conditions: covalent; 15 uM reduced protein, 150 uM OPDA, 3 h, RT, 50 mM KPi pH 7.2

## CC/C=C\C[C@@H]1C(=O)C=C[C@@H]1CCCCCCCC(=O)O [OPDA]
TRX-m4 [1]
  residual activity: 71%
TRX-m4 [2]
  change of maximal fluorescence intensity: –16.3 relative units
TRX-f1 [3]
  residual activity: 67%
TRX-h3
  residual activity: 47%
TRX-f1 [4]
  change of maximal fluorescence intensity: –14.5 relative units
